Laboratory results: patent EP2923697B1, “Extract and novel isolated compound from Aspergillus terreus for treatment of mouth microbial infections” (King Saud University, priority 2014, dated 2015)
Converted amounts (≈) assume the structure as drawn. “And” between values parts separate entries of the source, which are not always exact repeats. Equal entries are not always repeated. Values belong to the molecule of their own block, whether it stands above or below them.

Columns and labels:
[1] = test system: Lactobacillus acidophilus; experiment: Antimicrobial activity, well diffusion method; assay type: cell-based; settings: 5mg/ml of sample around well (6 mm), mean ± Standard deviation
Text: (§1) Mouth microbial representatives including unicellular fungi; Candida albicans (RCMB 05382), Candida glabrata (RCMBA 05386), Candida parapsilosis (RCMBA 06002), Candida tropicalis (RCMB 05384), Gram-positive bacteria; Lactobacillus acidophilus (RCMBA 4267), Streptococcus gordonii (RCMBA 2004), Streptococcus mutans (RCMBA 4131), and Gram-negative bacteria; Pseudomonas aeruginosa (RCMBA 1002) were obtained from the Regional Center for Mycology and Biotechnology (RCMB), Al-Azhar University, Cairo, Egypt, as test organisms. Antimicrobial activity was determined by the well diffusion method. Petri plates contained 20 ml of Nutrient (for bacteria) or Malt extract (for fungi). Agar medium were seeded with 1-3 day cultures of microbial inoculums (1-2 X 10^7 CFU/ml). […] The assessment of antimicrobial activity was based on measurement of the diameter of the inhibition zone formed around the well.

Streptococcus mutans [2] = experiment: Antimicrobial activity, well diffusion method; assay type: cell-based; settings: 5mg/ml of sample around well (6 mm), mean ± Standard deviation
Text: as §1

Pseudomonas aeruginosa [3] = experiment: Antimicrobial activity, well diffusion method; assay type: cell-based; settings: 5mg/ml of sample around well (6 mm), mean ± Standard deviation
Text: as §1

Streptococcus gordonii [4] = experiment: Antimicrobial activity, well diffusion method; assay type: cell-based; settings: 5mg/ml of sample around well (6 mm), mean ± Standard deviation
Text: as §1

S. mutans = experiment: In-vitro activity in combination with Coe-Comfort tissue conditioner; assay type: cell-based, Streptococcus mutans
[5] = test system: Lactobacillus acidophilus; experiment: In-vitro activity in combination with Coe-Comfort tissue conditioner, CFU count; assay type: cell-based; settings: for concentration giving total growth inhibition: in combination with Coe-comfort tissue conditioner; for No. colony-forming units (CFU): mixed with Coe-Comfort
[6] = test system: Lactobacillus acidophilus; experiment: MIC determination, micro-dilution method; assay type: cell-based; settings: for MIC: read-out: Minimum Inhibitory Concentration
Text: (§2) Mouth microbial representatives including unicellular fungi; Candida albicans (RCMB 05382), Candida glabrata (RCMBA 05386), Candida parapsilosis (RCMBA 06002), Candida tropicalis (RCMB 05384), Gram-positive bacteria; Lactobacillus acidophilus (RCMBA 4267), Streptococcus gordonii (RCMBA 2004), Streptococcus mutans (RCMBA 4131), and Gram-negative bacteria; Pseudomonas aeruginosa (RCMBA 1002) were obtained from the Regional Center for Mycology and Biotechnology (RCMB), Al-Azhar University, Cairo, Egypt, as test organisms.
(§3) The minimum inhibitory concentration (MIC) was determined by micro-dilution method using serially diluted (2 folds) extract and isolated compound. MIC of the extract was determined by dilution of extract and isolated compound of concentrations of 0.0-1000 µg/ml. Equal volume of each extract and nutrient broth were mixed in a test tube. Specifically 0.1 ml of standardized inoculum (1-2 X 10^7 CFU/ml) was added in each tube. The tubes were incubated at 37°C for 24-48 h. Two control tubes containing the growth medium, saline and the inoculum were maintained for each test batch. The lowest concentration (highest dilution) of the extract that produced no visible microbial growth (no turbidity) when compared with the control tubes were regarded as MIC.

Streptococcus mutans [7] = experiment: MIC determination, micro-dilution method; assay type: cell-based; settings: read-out: Minimum Inhibitory Concentration
Text: as §2, §3

Pseudomonas aeruginosa [8] = experiment: MIC determination, micro-dilution method; assay type: cell-based; settings: read-out: Minimum Inhibitory Concentration
Text: as §2, §3

Streptococcus gordonii [9] = experiment: MIC determination, micro-dilution method; assay type: cell-based; settings: read-out: Minimum Inhibitory Concentration
Text: as §2, §3

Streptococcus gordonii [10] = experiment: In-vitro activity in combination with Coe-Comfort tissue conditioner; assay type: cell-based
Candida albicans [11] = experiment: Antimicrobial activity, well diffusion method; assay type: cell-based; settings: 5mg/ml of sample around well (6 mm), mean ± Standard deviation
Text: as §1

Candida parapsilosis [12] = experiment: Antimicrobial activity, well diffusion method; assay type: cell-based; settings: 5mg/ml of sample around well (6 mm), mean ± Standard deviation
Text: as §1

Candida glabrata [13] = experiment: Antimicrobial activity, well diffusion method; assay type: cell-based; settings: 5mg/ml of sample around well (6 mm), mean ± Standard deviation
Text: as §1

Candida tropicalis [14] = experiment: Antimicrobial activity, well diffusion method; assay type: cell-based; settings: 5mg/ml of sample around well (6 mm), mean ± Standard deviation
Text: as §1

[15] = Sub-chronic toxicity, liver and kidney function; assay type: in vivo, Male Wister rats; settings: rats; oral daily for 15 days; extract 500 mg/kg, isolated compound 50 mg/kg; serum 6 hr after the last dose
Description: Male Wister rats (150-180 g) were divided into 3 equal groups each of 10 rats. Rats of the 1st group received the vehicle in a dose of 5 mL/kg and left as normal control. Rats of the 2nd and 3rd groups were administered the ethanolic extract of the investigated fungi (500 mg/kg) and the isolated compound (50 mg/kg). All medications were administered orally daily for 15 consecutive days. Animals were maintained under identical conditions with food and water ad libitum for the entire period with close observation. At the end of the experimental period, blood samples were collected from the orbital plexus of rats, 6 hr after the last dose. Samples were left to clot at room temperature for 20 min. The obtained sera were collected and used to determine the activity of AST and ALT. Levels of urea and creatinine were also estimated.

Candida albicans [16] = experiment: MIC determination, micro-dilution method; assay type: cell-based; settings: read-out: Minimum Inhibitory Concentration
Text: as §2, §3

Candida parapsilosis [17] = experiment: MIC determination, micro-dilution method; assay type: cell-based; settings: Lodderomyces parapsilosis, read-out: Minimum Inhibitory Concentration
Text: as §2, §3

Candida glabrata [18] = experiment: MIC determination, micro-dilution method; assay type: cell-based; settings: Candida glabrata
Text: as §2, §3

Candida tropicalis [19] = experiment: MIC determination, micro-dilution method; assay type: cell-based
Text: as §2, §3

Candida albicans [20] = experiment: In-vitro activity in combination with Coe-Comfort tissue conditioner, CFU count; assay type: cell-based; settings: for No. colony-forming units (CPU): Candida albicans, mixed with Coe-Comfort
Description: The Coe-Comfort tissue conditioner was mixed according to the proportions indicated by the manufacturers. In detail, Coe-comfort™ tissue conditioner is formed by dispensing 5 ml of Coe-comfort liquid into a disposable mixing cup. The red measure level is filled with about 6 g of Coe-comfort powder and is then slowly added to the liquid. The obtained mixture is blended for 30 seconds and setted aside for approximately one minute until it flows sluggishly from a spatula. Using less liquid gives a thicker, faster setting mix and vice versa. […] The extract and isolated compound/conditioner mixture was homogenized in a sterile glass beaker for 30 seconds. Immediately afterwards, the conditioning powder was added and mixed for 40 seconds and then poured onto a Petri plate. Once the mixture solidified, the surface was covered with 4 ml of Sabouraud agar, and after 30 minutes, inoculated with 20 µl of an appropriate dilution of Candida. The plates were incubated at 37°C for 24 hours and then the CFUs were counted. The experiment was performed in triplicate. For the conditioner Coe-Comfort, the control was unmodified conditioner.

- MIC [6]: 0.06 µg/mL (≈ 0.119 µM)
- MIC (Streptococcus mutans [7]): 0.49 µg/mL (≈ 0.969 µM)
- MIC (Pseudomonas aeruginosa [8]): 3.9 µg/mL (≈ 7.72 µM)
- MIC (Streptococcus gordonii [9]): 0.98 µg/mL (≈ 1.94 µM)
Structure (SMILES): [H]/N=C(\N/C(=N/[H])NCCCCCCNC(=N)NC(=N)Nc1ccc(Cl)cc1)Nc1ccc(Cl)cc1 [Chlorhexidine, reference compound]
- Diameter of inhibition zone [1]: 26.2± 0.42 mm
- Diameter of inhibition zone (Streptococcus mutans [2]): 23.5 ± 0.34 mm
- Diameter of inhibition zone (Pseudomonas aeruginosa [3]): 20.1 ± 0.19 mm
- Diameter of inhibition zone (Streptococcus gordonii [4]): 22.1± 0.51 mm
- concentration giving total growth inhibition (S. mutans): 15.63 µg/mL
- concentration giving total growth inhibition [5]: 15.63 µg/mL
- No. colony-forming units (CFU) ([5]; concentration 000.24 µg/ml): 6.4 x 10^5
- No. colony-forming units (CFU) ([5]; concentration 000.49 µg/ml): 2.3 x 10^5
- No. colony-forming units (CFU) ([5]; concentration 000.98 µg/ml): 3.1 x 10^4
- No. colony-forming units (CFU) ([5]; concentration 001.95 µg/ml): 5.4 x 10^3
- No. colony-forming units (CFU) ([5]; concentration 003.90 µg/ml): 1.9 x 10^3
- No. colony-forming units (CFU) ([5]; concentration 007.81 µg/ml): 7.9 x 10^2
- No. colony-forming units (CFU) ([5]; concentration 015.63 µg/ml): 00.00
- No. colony-forming units (CFU) ([5]; concentration 031.25 µg/ml): 00.00
- No. colony-forming units (CFU) ([5]; concentration 062.50 µg/ml): 00.00
- concentration giving total growth inhibition (Streptococcus gordonii [10]): 3.9 µg/mL

Structure (SMILES): C/C=C(/C)C1CCC2C(C1)CC(C)C1C2C=C(C)C2C3CC(C=C(C)C)CC3C(O)CC21 (stereo not shown) [Isolated compound, 9-((Z)-but-2-en-2-yl)-2,3,3a,4,5,5a;5b,6,7,7a,8,9,10,11,11a,11b,13a,13b-octadecahydro-6,13-dimethyl-2-(2-methylprop-1-enyl)-1H-cyclopenta[a]chrysen-4-ol]
- Diameter of inhibition zone (Candida albicans [11]): 19.3 ± 0.63 mm
- Diameter of inhibition zone [1]: 23.9 ± 0.37 mm
- Diameter of inhibition zone (Streptococcus mutans [2]): 22.1± 0.72 mm
- Diameter of inhibition zone (Pseudomonas aeruginosa [3]): 18.2± 0.63 mm
- Diameter of inhibition zone (Candida parapsilosis [12]): 21.3 ± 0.58 mm
- Diameter of inhibition zone (Candida glabrata [13]): 00.0 mm
- Diameter of inhibition zone (Streptococcus gordonii [4]): 20.3 ± 0.72 mm
- Diameter of inhibition zone (Candida tropicalis [14]): 22.4 ± 0.58 mm
- effect on the activity of alanine aminotransferase (ALT) [15]: did not show any significant effect
- effect on the activity of aspirate aminotransferase (AST) [15]: did not show any significant effect
- effect on the levels of blood urea [15]: did not show any significant effect
- effect on the levels of serum creatinine [15]: did not show any significant effect
- concentration giving total growth inhibition (S. mutans): 125 µg/mL
- concentration giving total growth inhibition [5]: 7.81 µg/mL
- No. colony-forming units (CFU) ([5]; concentration 000.24 µg/ml): 8.2 x 10^5
- No. colony-forming units (CFU) ([5]; concentration 000.49 µg/ml): 9.7 x 10^4
- No. colony-forming units (CFU) ([5]; concentration 000.98 µg/ml): 4.8 x 10^4
- No. colony-forming units (CFU) ([5]; concentration 001.95 µg/ml): 3.4 x 10^3
- No. colony-forming units (CFU) ([5]; concentration 003.90 µg/ml): 4.1 x10^2
- No. colony-forming units (CFU) ([5]; concentration 007.81 µg/ml): 00.00
- No. colony-forming units (CFU) ([5]; concentration 015.63 µg/ml): 00.00
- No. colony-forming units (CFU) ([5]; concentration 031.25 µg/ml): 00.00
- No. colony-forming units (CFU) ([5]; concentration 062.50 µg/ml): 00.00
- MIC (Candida albicans [16]): 7.81 µg/mL (≈ 17.9 µM)
- Minimum Inhibitory Concentration [6]: 000.24 µg/mL
- MIC [6]: 0.24 µg/mL (≈ 0.55 µM)
- MIC (Streptococcus mutans [7]): 0.98 µg/mL (≈ 2.24 µM)
- MIC (Pseudomonas aeruginosa [8]): 15.6 µg/mL (≈ 35.8 µM)
- MIC (Candida parapsilosis [17]): 1.95 µg/mL (≈ 4.47 µM)
- Minimum Inhibitory Concentration (Candida glabrata [18]): 000.00 µg/mL
- MIC (Streptococcus gordonii [9]): 3.9 µg/mL (≈ 8.93 µM)
- Minimum Inhibitory Concentration (Candida tropicalis [19]): 000.49 µg/mL
- MIC (Candida tropicalis [19]; read-out: Minimum Inhibitory Concentration): 0.49 µg/mL (≈ 1.12 µM)
- concentration giving total growth inhibition (Streptococcus gordonii [10]): 62.50 µg/mL and 62.5 µg/mL
- concentration giving total growth inhibition (Candida albicans [20]; C. albicans, in combination with Coe-comfort tissue conditioner): 7.81 µg/mL
- No. colony-forming units (CPU) (Candida albicans [20]; concentration 000.24 µg/ml): 9.1 x 10^4
- No. colony-forming units (CPU) (Candida albicans [20]; concentration 000.49 µg/ml): 5.2 x 10^4
- No. colony-forming units (CPU) (Candida albicans [20]; concentration 000.98 µg/ml): 6.3 x 10^3
- No. colony-forming units (CPU) (Candida albicans [20]; concentration 001.95 µg/ml): 1.0 x 10^3
- No. colony-forming units (CPU) (Candida albicans [20]; concentration 003.90 µg/ml): 2.3 x 10^2
- No. colony-forming units (CPU) (Candida albicans [20]; concentration 007.81 µg/ml): 00.00
- No. colony-forming units (CPU) (Candida albicans [20]; concentration 015.63 µg/ml): 00.00
- No. colony-forming units (CPU) (Candida albicans [20]; concentration 031.25 µg/ml): 00.00
- No. colony-forming units (CPU) (Candida albicans [20]; concentration 062.50 µg/ml): 00.00
